Laboratory results taken from US20090036464A1, “Treatment Of Posterior Capsule Opacification” (priority 2004, published 2009).

How the values were obtained:
[1] = test system: adult dermal microvascular endothelial cells; experiment: MTS cell viability, rescue by sigma-1 agonists; assay type: cell-based, human; conditions: co-administration of equimolar concentrations (10 μM) of sigma-1 agonist
Description: (§1) Human adult male dermal fibroblasts, adult mammary epithelial cells, adult dermal microvascular endothelial cells and bovine lens epithelial cells at low passage were exposed to 10 μM concentrations of the sigma-1 antagonists rimcazole and IPAG for up to 72 hours. Change in cell viability over time was measured in the MTS assay; data points represent mean values (±SD), obtained from wells in triplicate, expressed relative to baseline (pre-treatment) values. Graphs depict representative experiments, performed at least three times.

[2] = test system: human lens cell line FHL124; experiment: FHL124 cell growth patch assay; assay type: cell-based; conditions: for growth of FHL124 cells: 4 days
Description: The effect of sigma ligands on human lens cell growth in FHL124 cell line maintained in serum-free media (A) or EMEM supplemented with 5% FCS (B). […] The cells were cultured for 4 days with experimental conditions. Experiments were repeated on 4 occasions. Data are expressed as Mean±S.E.M., the star represents significant difference from untreated control with rimcazole, and box represents significant difference from untreated control with (±)SKF 10047 (test p<0.05).
The effect of sigma-1 ligands on human lens cell growth in FHL 124 cell line maintained in serum-free media. A represents the data of patch area measurement. B represents the dye extraction from each stained patch, ie. cell number. The cells were cultured for 4 days with experimental conditions. Experiments were repeated on 4 occasions. Data are expressed as Mean±S.E.M, the star represents significant difference from untreated control with rimcazole, and ▪ represents significant difference from untreated control with (±)SKF10047 (test p<0.05).
The growth of the spontaneously immortal human lens cell line FHL124 was investigated using a patch assay. Cells grown from a single patch derived from a coverslip and stained with dye to estimate the cell number. […] (FIG. 6). […] Attenuation of rimcazole and BD-1047-mediated growth inhibition by a highly specific sigma-1 agonist confirms that growth inhibition is at least partly mediated through antagonism of sigma-1 sites.

[3] = test system: primary human lens epithelial cells on the posterior capsule; experiment: pigmentation of lens cells during growth inhibition assays; assay type: cell-based; conditions: sub-lethal dose (3 μM), control cells remained clear, FIG. 8, 9
Description: Phase micrographs of cultured human lens cells on central anterior (upper) and posterior capsule (lower) respectively. The cells were maintained in serum-free or supplemented (3 μM Rimcazole) media for one week. The images were converted to grayscale with Adobe photoshop software.
Formation of pigment granules in human epithelial cells. A. Different stages of pigment granule formation (I-IV) as defined in MNT-1 melanoma cells by Seiji et al. 1963. B. Cross section of human lens epithelial cells grown in (a) control medium and (b) the presence of 3 μM BD1047.
(§2) The bags were maintained in Eagle's minimum essential medium (EMEM) or EMEM supplemented with either 3 μM Rimcazole dihydrochloride (rimcazole), 10 μm(+)-SKF 10047 hydrochloride (SKF), and 3 μM or 10 μM BD1047 dihydrochloride (BD1047) (all supplied by TOCRIS) and incubate at 35° C. in a 5% CO2 atmosphere. The medium was replaced every 2 days and ongoing observations and analyses were performed as above.
This pigmentation was also present in cells similarly tested on the rhexis (anterior capsule) removed during preparation of the capsular bag (FIG. 8) and in the FHL-124 lens cell line (not shown). […]

tumour cells = experiment: tumour cell growth inhibition / killing; assay type: cell-based, human; conditions: read-out: IC50 (concentration of drug required to produce 50% growth inhibition) for tumour cells
Text: It has therefore been proposed that the subcellular localisation of the sigma receptor may contribute to the degree of susceptibility to sigma ligands (Spruce et al Cancer Research 2004). Without wishing to be bound by theory, the present inventors postulated that differential subcellular localisation of the sigma receptor, or other factors, could lead to sigma ligands being differentially potent in lens epithelial cells compared to tumour cells. […] Specifically, the IC50 (the concentration of drug required to produce 50% growth inhibition) of BD-1047 for tumour cells is in the region 50-100 micromolar; in contrast, the IC50 for human lens epithelial cells (in the capsular bag system) is in the region of 10 micromolar.
(§3) Rate of cell coverage of the posterior capsule beyond the rhexis; 100% represents confluency. Experiments were repeated on 4 occasions.

[4] = test system: human lens epithelial cells on the posterior capsule; experiment: in vitro capsular bag growth assay (cell coverage of the posterior capsule); assay type: cell-based; conditions: for growth of human lens cells on the posterior capsule: 3 μm, FIG. 2, FIG. 3
Description: Rate of cell coverage of the posterior capsule beyond the rhexis; 100% represents confluency. Experiments were repeated on 4 occasions. The means and standard errors are display ed.
as §3
The model previously described by Liu et al (1996) was used. A sham cataract operation was performed on human donor eyes. The resultant capsular bag was then dissected free of the zonules and secured on a sterile 35 mm PMMA petri dish. Eight entomological pins (D1: Watkins and Doncaster Ltd., Kent, UK) were inserted through the edge of the capsule to retain its circular shape. Incubation was at 35° C. in a 5% CO2 atmosphere. Ongoing observations were performed with a Nikon phase-contrast microscope and images captured with a digital camera (Coolpix 950; Nikon. Tokyo, Japan) with associated imaging software (a person, personal communication). In some cases preparations were used for radioactive isotope studies.
as §2

[5] = test system: bovine lens epithelial cells; experiment: in vitro cell death assay (MTS cell viability) on tissue culture plastic; assay type: cell-based; conditions: 10 μM, up to 72 hours, FIG. 1
Description: as §1

[6] = test system: lens epithelial cells in the presence of the bovine capsule; conditions: versus cells cultured in isolation; cited from earlier work
[7] = test system: human lens epithelial cells; experiment: efflux of radioactive isotopes (3H-dopamine, 14C-tyrosine) in capsular bags; assay type: cell-based; conditions: capsular bag system, 3 μM rimcazole
Description: Efflux of (A) ^3H-dopamine and (B) ^14C-tyrosine from human lens epithelial cells in control (SF) and rimcazole supplemented media. Data are presented as mean±6 separate experiments.
Capsular bags were maintained in Eagle's minimum essential medium (EMEM) or EMEM supplemented with 3 μM. Rimcazole dihydrochloride (rimcazole) (TOCRIS) for 7 days (when the pigment granules could be observed in cells). 1 μCl/ml of ^3H-dopamine and 2 μCi/ml of ^14C-tyrosine (Amersham Biosciences) were then added to each dish for an additional 24 hours. At the end point, 10 μl of medium were collected from each dish, and transferred into scintillation vials. The bags were washed briefly twice with EMEM and fresh control or experimental media added for one hour. The medium was then collected into scintillation vials and the procedure repeated eights times. The experiment was then terminated by adding 1 ml of ice-cold 5% Trichloroacetic acid (TCA) (Fisher Chemicals) to each dish. After 30 minutes, the TCA was removed from each well to determine the cytosolic dopamine and tyrosine levels. 1 ml of 250 mM NaOH was then added to each dish to determine the radio-isotope levels in the TCA precipitable fraction. 10 mls of scintillation fluid (Hisafe Supermix) were then added to each scintillation vial and the samples assayed using a Wallac scintillation counter with appropriate background controls. […]

C=CCN1CCC2(C)c3cc(O)ccc3CC1C2C.Cl (single isomer, unassigned; (+)) [(+)-SKF10047, (+)-SKF 10047 hydrochloride]
protection of microvascular endothelial cells from rimcazole and IPAG [1]: protected | rescue of sigma antagonist (rimcazole)-mediated growth inhibition of FHL124 cells ([2]; both concentrations, serum free medium, FIG. 5): partially rescues | restoration of growth to BD1047 inhibited FHL124 cells ([2]; higher concentrations of BD1047 (10 and 30 μm), FIG. 6): partially restores growth

CC(C)=CCN1CCC2(C)c3cc(O)ccc3CC1C2C (single isomer, unassigned; (+)) [(+)-pentazocine]
protection of microvascular endothelial cells from rimcazole and IPAG [1]: protected

CN(C)CCN(C)CCc1ccc(Cl)c(Cl)c1 [BD1047]
pigmentation of primary human lens epithelial cells [3]: become pigmented | IC50 (tumour cells): 50 to 100 µM | growth of human lens cells on the posterior capsule [4]: less inhibitory | growth of lens cells on the capsule ([4]; 10 μm, FIG. 4): potently inhibits growth | IC50 ([4]; in the capsular bag system): ~10 µM | growth inhibition of FHL124 cells (patch size, protein content) ([2]; lower dose (10 μm), serum-free, FIG. 6): less effective

NC(=NC1C2CC3CC(C2)CC1C3)Nc1ccc(I)cc1 (centres unmarked) [IPAG]
susceptibility of primary bovine lens cells in tissue culture compared with tumour cells [5]: almost as susceptible

C[C@@H]1CN(CCCn2c3ccccc3c3ccccc32)C[C@H](C)N1 [Rimcazole]
pigmentation of primary human lens epithelial cells [3]: become pigmented | ability to induce apoptosis in lens epithelial cells [6]: substantially less able to induce apoptosis | dopamine efflux ([7]; FIG. 10A): unaffected | efflux of 14C-tyrosine from lens cells ([7]; FIG. 10B): no effect | susceptibility of primary bovine lens cells in tissue culture compared with tumour cells [5]: almost as susceptible | growth of human lens cells on the posterior capsule [4]: inhibits growth | cell killing in human lens epithelial cells ([4]; contained in the human capsular bag system): potently induces cell killing | growth of FHL124 cells ([2]; 3 and 10 μm, serum free medium, FIG. 5): significantly inhibited | growth of FHL124 cells ([2]; 5% FCS, higher dose (10 μm), FIG. 5): growth inhibition is less marked
